Measured values reported in patent publication US20150299125A1, “PRODRUG BIPYRIDYLAMINOPYRIDINES AS SYK INHIBITORS” (MERCK SHARP & DOHME CORP., priority 2012, published 2015).
≈ marks a conversion by molar mass, not a printed value. Where two headings read alike, the source gives them in different places.

Columns and labels:
[1] = target: T1, recombinant human GST-Syk (Homo sapiens, UniProt P43405); test: Homogeneous Time-Resolved Fluorescence (HTRF) assay for the recombinant human Syk enzyme; assay type: biochemical; details: recombinant human GST-Syk 5 pM, ATP 25 μM, read-out: IC50
T1 construct: purchased Carna Biosciences 08-176
Method: Syk inhibition of the compounds of Formula (I) may be determined using the following assay protocol: Homogeneous Time-Resolved Fluorescence (HTRF) Assay for the Recombinant Human Syk Enzyme: A recombinant GST-hSyk fusion protein was used to measure potency of compounds to inhibit human Syk activity. […] Final volume of the reaction was 10 μL. Phosphorylation of the peptide was allowed to proceed for 45' at room temperature. To quench the reaction and detect the phosphorylated product, 2 nM of a Europium-anti-phosphotyrosine antibody (Perkin Elmer #AD0161) and 70 nM SA-APC (Perkin-Elmer #CR130-100) were added together in 15 mM Tris pH 7.5, 40 mM EDTA, 0.01% tween 20. Final volume of the quenching solution was 10 μL. The resulting HTRF signal was measured after 30 minutes on a EnVision (Perkin-Elmer) reader using a time-resolved fluorescence protocol.

[2] = Solubility in biorelevant fasted state simulated intestinal fluid (FaSSIF); assay type: physicochemical; details: kinetic from dmso stock
Method: Solubility in Biorelevant Fasted State Simulated Intestinal Fluid (FaSSIF):
A 10 mM DMSO stock solution of compound to be tested is used. A 100 μM standard solution is generated by diluting 2.5 μL of the 10 mM stock solution with 247.5 μL of diluent (10% DMSO/10% MeCN/80% MeOH, v/v/v). A solubility solution is generated by diluting 5 μL of the 10 mM stock solution with 245 μL of FaSSIF (maximum solubility approximately 200 μM). […] The equilibrated solubility solution is filtered by centrifugation (3 minutes at 4000 rpm) using a 0.45 µm filter with a polypropylene membrane. The standard solution and the filtered equilibrated solubility solution are analyzed by HPLC/DAD. The solubility value is calculated by the following equation:
Solubility=(Peak area of sample/Peak area of standard)(Standard concentration)

With Cc1cc(Nc2cc(C(F)F)ccn2)nc(-c2ccc([C@](C)(O)[C@H]3CC[C@H](C(=O)OCCC(C)(C)O)CC3)nc2)c1 [Example 1-12, 3-hydroxy-3-methylbutyl trans-4-[(1R)-1-(6-{[4-(difluoromethyl)pyridin-2-yl]amino}-4-methyl-2,3′-bipyridin-6′-yl)-1-hydroxyethyl] cyclohexanecarboxylate] the IC50 [1] was 10 nM and the solubility ([2]; FaSSIF, equilibrated overnight at 25° C., maximum solubility approximately 200 μM, read-out: Solubility) was 76 µM (≈ 43.2 µg/mL).

For Cc1cc(Nc2cc(C(F)F)ccn2)nc(-c2ccc([C@](C)(O)[C@H]3CC[C@H](C(=O)OCCCN(C)C)CC3)nc2)c1 [Example 1-13, 3-(dimethylamino)propyl trans-4-[(1R)-1-(6-{[4-(difluoromethyl)pyridin-2-yl]amino}-4-methyl-2,3′-bipyridin-6′-yl)-1-hydroxyethyl] cyclohexanecarboxylate], the IC50 [1] was 4.4 nM and the solubility ([2]; 25 °C, fassif, Solubility) was 140 µM (≈ 79.5 µg/mL).

In the case of Cc1cc(Nc2cc(C(F)F)ccn2)nc(-c2ccc([C@](C)(O)[C@H]3CC[C@H](C(=O)OC[C@H]4COC(C)(C)O4)CC3)nc2)c1 [Example 1-14, [(4R)-2,2-dimethyl-1,3-dioxolan-4-yl]methyl trans-4-[(1R)-1-(6-{[4-(difluoromethyl)pyridin-2-yl]amino}-4-methyl-2,3′-bipyridin-6′-yl)-1-hydroxyethyl] cyclohexanecarboxylate], the IC50 [1] is reported as 27.6 nM and the solubility ([2]; 25 °C, fassif, Solubility) is reported as 109 µM (≈ 65 µg/mL).

Molecule Cc1cc(Nc2cc(C(F)F)ccn2)nc(-c2ccc([C@](C)(O)[C@H]3CC[C@H](C(=O)OC[C@@H]4COC(C)(C)O4)CC3)nc2)c1 [Example 1-15, [(4S)-2,2-dimethyl-1,3-dioxolan-4-yl]methyl trans 4-[(1R)-1-(6-{[4-(difluoromethyl)pyridin-2-yl]amino}-4-methyl-2,3′-bipyridin-6′-yl)-1-hydroxyethyl] cyclohexanecarboxylate] has an IC50 [1] of 18.5 nM and a solubility ([2]; 25 °C, fassif, Solubility) of 126 µM (≈ 75.2 µg/mL).

For Cc1cc(Nc2cc(C(F)F)ccn2)nc(-c2ccc([C@](C)(O)[C@H]3CC[C@H](C(=O)OC[C@H](O)CO)CC3)nc2)c1 [Example 1-16, (2R)-2,3-dihydroxypropyl trans-4-[(1R)-1-(6-{[4-(difluoromethyl)pyridin-2-yl]amino}-4-methyl-2,3′-bipyridin-6′-yl)-1-hydroxyethyl] cyclohexanecarboxylate], the IC50 [1] was 2.3 nM and the solubility ([2]; 25 °C, fassif, Solubility) was 165 µM (≈ 91.8 µg/mL).

Cc1cc(Nc2cc(C(F)F)ccn2)nc(-c2ccc([C@](C)(O)[C@H]3CC[C@H](C(=O)OC4CCNCC4)CC3)nc2)c1 [Example 1-17, piperidin-4-yl trans-4-[(1R)-1-(6-{[4-(difluoromethyl)pyridin-2-yl]amino}-4-methyl-2,3′-bipyridin-6′-yl)-1-hydroxyethyl] cyclohexanecarboxylate] showed an IC50 [1] of 4.1 nM and a solubility ([2]; 25 °C, fassif, Solubility) of 136 µM (≈ 76.9 µg/mL).

Work on Cc1cc(Nc2cc(C(F)F)ccn2)nc(-c2ccc([C@](C)(O)[C@H]3CC[C@H](C(=O)OC4CC5CCC(C4)N5)CC3)nc2)c1 (stereo partly drawn) [Example 1-18, 8-azabicyclo[3.2.1]oct-3-yl trans-4-[(1R)-1-(6-{[4-(difluoromethyl)pyridin-2-yl]amino}-4-methyl-2,3′-bipyridin-6′-yl)-1-hydroxyethyl] cyclohexanecarboxylate] yielded an IC50 [1] of 2.7 nM and a solubility ([2]; FaSSIF (fasted state simulated intestinal fluid), 25 °C, fassif, FaSSIF, equilibrated overnight at 25° C., maximum solubility approximately 200 μM, read-out: Solubility) of 109 µM (≈ 64.5 µg/mL).

Cc1cc(Nc2cc(C(F)F)ccn2)nc(-c2ccc([C@](C)(O)[C@H]3CC[C@H](C(=O)O[C@H]4C[C@H](N)C4)CC3)nc2)c1 [Example 1-19, trans-3-aminocyclobutyl trans-4-[(1R)-1-(6-{[4-(difluoromethyl)pyridin-2-yl]amino}-4-methyl-2,3′-bipyridin-6′-yl)-1-hydroxyethyl] cyclohexanecarboxylate] showed an IC50 [1] of 4.4 nM and a solubility ([2]; 25 °C, fassif, Solubility) of 98 µM (≈ 54.1 µg/mL).

Cc1cc(Nc2cc(C(F)F)ccn2)nc(-c2ccc([C@](C)(O)[C@H]3CC[C@H](C(=O)OCC4CCOCC4)CC3)nc2)c1 [Example 1-20, tetrahydro-2H-pyran-4-ylmethyl trans-4-[(1R)-1-(6-{[4-(difluoromethyl)pyridin-2-yl]amino}-4-methyl-2,3′-bipyridin-6′-yl)-1-hydroxyethyl] cyclohexanecarboxylate] showed an IC50 [1] of 34.1 nM and a solubility ([2]; 25 °C, fassif, Solubility) of 47 µM (≈ 27.3 µg/mL).

In the case of CN[C@H]1CC[C@H](OC(=O)[C@H]2CC[C@H]([C@@](C)(O)c3ccc(-c4cc(C)cc(Nc5cc(C(F)F)ccn5)n4)cn3)CC2)CC1 [Example 1-24, trans-4-(methylamino)cyclohexyl trans-4-[(1R)-1-(6-{[4-(difluoromethyl)pyridin-2-yl]amino}-4-methyl-2,3′-bipyridin-6′-yl)-1-hydroxyethyl] cyclohexanecarboxylate], the IC50 [1] is reported as 3.5 nM and the solubility ([2]; 25 °C, fassif, Solubility) is reported as 141 µM (≈ 83.7 µg/mL).

Cc1cc(Nc2cc(C(F)F)ccn2)nc(-c2ccc([C@](C)(O)[C@H]3CC[C@H](C(=O)OCCCCCCN(C)C)CC3)nc2)c1 [Example 1-25, 6-(dimethylamino)hexyl trans-4-[(1R)-1-(6-{[4-(difluoromethyl)pyridin-2-yl]amino}-4-methyl-2,3′-bipyridin-6′-yl)-1-hydroxyethyl] cyclohexanecarboxylate] showed an IC50 [1] of under 0.5 nM and a solubility ([2]; 25 °C, fassif, Solubility) of 73 µM (≈ 44.5 µg/mL).

With CO[C@H]1O[C@H](COC(=O)[C@H]2CC[C@H]([C@@](C)(O)c3ccc(-c4cc(C)cc(Nc5cc(C(F)F)ccn5)n4)cn3)CC2)[C@@H](O)[C@H](O)[C@H]1O [Example 1-26, methyl 6-O-({trans-4-[(1R)-1-(6-{[4-(difluoromethyl)pyridin-2-yl]amino}-4-methyl-2,3′-bipyridin-6′-yl)-1-hydroxyethyl]cyclohexyl}carbonyl)-alpha-D-glucopyranoside] the IC50 [1] was 4.1 nM and the solubility ([2]; 25 °C, fassif, Solubility) was 109 µM (≈ 71.8 µg/mL).

Cc1cc(Nc2cc(C(F)F)ccn2)nc(-c2ccc([C@](C)(O)[C@H]3CC[C@H](C(=O)OCCC(=O)N(C)C)CC3)nc2)c1 [Example 1-27, 3-(dimethylamino)-3-oxopropyl trans-4-[(1R)-1-(6-{[4-(difluoromethyl)pyridin-2-yl]amino}-4-methyl-2,3′-bipyridin-6′-yl)-1-hydroxyethyl] cyclohexanecarboxylate] showed an IC50 [1] of 1.8 nM and a solubility ([2]; 25 °C, fassif, Solubility) of 50 µM (≈ 29.1 µg/mL).

Work on Cc1cc(Nc2cc(C(F)F)ccn2)nc(-c2ccc([C@](C)(O)[C@H]3CC[C@H](C(=O)OCOC(=O)OCCCCCCN)CC3)nc2)c1 [Example 2-1, ({[(6-Aminohexyl)oxy]carbonyl}oxy)methyl trans-4-[(1R)-1-(6-{[4-(difluoromethyl)pyridin-2-yl]amino}-4-methyl-2,3′-bipyridin-6′-yl)-1-hydroxyethyl]cyclohexanecarboxylate] yielded an IC50 [1] of 19.9 nM and a solubility ([2]; 25 °C, fassif, Solubility) of 167 µM (≈ 110 µg/mL).

For Cc1cc(Nc2cc(C(F)F)ccn2)nc(-c2ccc([C@](C)(O)[C@H]3CC[C@H](C(=O)OCOC(=O)O[C@H]4CC[C@H](N)CC4)CC3)nc2)c1 [Example 2-11, ({[(trans-4-aminocyclohexyl)oxy]carbonyl}oxy) methyl trans-4-[(1R)-1-(6-{[4-(difluoromethyl)pyridin-2-yl]amino}-4-methyl-2,3′-bipyridin-6′-yl)-1-hydroxyethyl]cyclo hexanecarboxylate], the IC50 [1] was 5.2 nM and the solubility ([2]; 25 °C, fassif, Solubility) was 149 µM (≈ 97.4 µg/mL).

For CCOCCOCCOC(=O)OC(OC(=O)[C@H]1CC[C@H]([C@@](C)(O)c2ccc(-c3cc(C)cc(Nc4cc(C(F)F)ccn4)n3)cn2)CC1)C(C)C (stereo partly drawn) [Example 2-16, 1-(1-methylethyl)-3-oxo-2,4,7,10-tetraoxadodec-1-yl trans-4-[(1R)-1-(6-{[4-(difluoromethyl)pyridin-2-yl]amino}-4-methyl-2,3′-bipyridin-6′-yl)-1-hydroxyethyl]cyclo hexanecarboxylate], the IC50 [1] was 48.4 nM and the solubility ([2]; 25 °C, fassif, Solubility) was 48 µM (≈ 34.3 µg/mL).

With Cc1cc(Nc2cc(C(F)F)ccn2)nc(-c2ccc([C@](C)(O)[C@H]3CC[C@H](C(=O)OCOC(=O)[C@@H](O)Cc4ccc(O)cc4)CC3)nc2)c1 [Example 3-6, {[(2S)-2-hydroxy-3-(4-hydroxyphenyl)propanoyl]oxy}methyl trans-4-[(1R)-1-(6-{[4-(difluoromethyl)pyridin-2-yl]amino}-4-methyl-2,3′-bipyridin-6′-yl)-1-hydroxyethyl]cyclohexane carboxylate] the IC50 [1] was 4.1 nM and the solubility ([2]; 25 °C, fassif, Solubility) was 89 µM (≈ 60.2 µg/mL).

With Cc1cc(Nc2cc(C(F)F)ccn2)nc(-c2ccc([C@](C)(O)[C@H]3CC[C@H](C(=O)OCOC(=O)CCO)CC3)nc2)c1 [Example 3-9, [(3-hydroxypropanoyl)oxy] methyl trans-4-[(1R)-1-(6-{[4-(difluoromethyl)pyridin-2-yl]amino}-4-methyl-2,3′-bipyridin-6′-yl)-1-hydroxyethyl]cyclohexane carboxylate] the IC50 [1] was 4.8 nM and the solubility ([2]; 25 °C, fassif, Solubility) was 160 µM (≈ 93.5 µg/mL).

Work on Cc1cc(Nc2cc(C(F)F)ccn2)nc(-c2ccc([C@](C)(O)[C@H]3CC[C@H](C(=O)OC[N+](C)(C)C(C)C)CC3)nc2)c1 [Example 5-2, N-{[({trans-4-[(1R)-1-(6-{[4-(difluoromethyl)pyridin-2-yl]amino}-4-methyl-2,3′-bipyridin-6′-yl)-1-hydroxyethyl]cyclohexyl}carbonyl)oxy]methyl}-N,N-dimethylpropan-2-aminium] yielded an IC50 [1] of 0.8 nM and a solubility ([2]; 25 °C, fassif, Solubility) of 97 µM.
